Article PMC6354162, “Development of a MD-LC-MS/MS Method to Analyze 3 Bioactive Compounds in Huoxuezhitong Rubber Patch and Application to a Pharmacokinetic Study in Rats” (Evidence-based Complementary and Alternative Medicine : eCAM, 2019)

How the values were obtained:
[1] = Local (subcutaneous) pharmacokinetic study by dermal microdialysis after dermal administration of Huoxuezhitong rubber patch; format: in vivo; settings: Sprague-Dawley, rat, subcutaneous (dermal) microdialysate, topical, male SD rats, mean ± SD, n = 6; for Cmax: maximum subcutaneous concentration, transdermal Huoxuezhitong rubber patch (3.46 cm2), removed after 720 min, corrected by RR; for AUC(0-t): subcutaneous concentration-time curve, read-out: AUC0-720 (converted); for AUC(0-t) / Tmax / MRT last / MRT inf / half-life: transdermal Huoxuezhitong rubber patch; for Tmax: subcutaneous tissue; for MRT last / MRT inf / half-life: subcutaneous; for MRT last: read-out: MRT0-720 (converted); for MRT inf: read-out: MRT0-∞ (converted); for half-life: terminal elimination half-life
Description: Before surgery, a rat with the hair on the abdomen shaved off was anesthetized with Urethane (1.5g/ kg, intraperitoneal injection). Its shell temperature was maintained at about 32.5°C during the experiment with the help of an infrared lamp. The linear microdialysis probe was inserted through a 23-gage intravenous needle. Subsequently, the needle was taken out, leaving the dialysis membranes horizontal under the hairless skin.
Implantation and pretreatment of the probe are the same as that described in Section 2.3. Then a round rubber patch (3.46 cm^2) was pasted on the hairless abdomen of the rat, respectively. After 720 min, the paste was scripted away. The skin was wiped softly and carefully to remove the residual drug. Simultaneously, another three samples was collected. If the rats suddenly died, the collection had to be terminated. All samples were immediately stored at 4°C until injected into the LC/MS/MS system for analysis. The sample concentration was corrected by RR.
The pharmacokinetics analysis was conducted by a noncompartmental approach using the Kinetica 5.1. The pharmacokinetics parameters, such as the maximum subcutaneous concentration (Cmax), time of reaching Cmax (Tmax), the area subcutaneous concentration-time curve (AUC0-t), the mean residence time (MRT), and the terminal elimination half-life (t1/2), were calculated on each individual analyte.

[2] = cited from earlier work

SMILES | Cmax [1] | AUC(0-t) [1] | Tmax [1] | MRT last [1] | MRT inf [1] | half-life [1] | Water solubility [2]
C=CCc1ccc(O)c(OC)c1 [eugenol] | 18.9 ± 7.11 ng/mL | 119 ng·h/mL | 4 h | 6.2 h | 7.77 h | 3.81 ± 2.7 h | insoluble
COc1ccc(C(C)=O)c(O)c1 [paeonol] | 12.6 ± 3.29 ng/mL | 83.7 ng·h/mL | 3.11 h | 6.06 h | 9.5 h | 5.62 ± 3.8 h | 349.8 µg/mL
O=C(/C=C/C=C/c1ccc2c(c1)OCO2)N1CCCCC1 [piperine] | 1.8 ± 1.22 ng/mL | 14.7 ng·h/mL | 8.13 h | 9.17 h | 11.5 h | 5.62 ± 0.741 h | insoluble
